Patent US9187524B2, “Broad spectrum antibiotic arylomycin analogs” (The Scripps Research Institute, priority 2010, dated 2015)
Converted amounts (≈) assume the structure as drawn. Like-named read-outs stand apart in the source and are kept apart here.

Columns and labels:
[1] = test system: wild type S. epidermidis RP62A; test: microbe, parasite or virus in culture; assay type: cell-based, Staphylococcus epidermidis; conditions: Staphylococcus epidermidis
[2] = test system: Rhodococcus erythropolis; test: microbe, parasite or virus in culture; assay type: cell-based; conditions: Table 13
[3] = test system: spsB(S29P) S. epidermidis RP62A; test: microbe, parasite or virus in culture; assay type: cell-based, Staphylococcus epidermidis; conditions: for MIC: Staphylococcus epidermidis
[4] = test system: lepB(P84L) P. aeruginosa PAO1; test: microbe, parasite or virus in culture; assay type: cell-based, Pseudomonas aeruginosa; conditions: for MIC: Pseudomonas aeruginosa
[5] = test system: S. agalactiae; test: microbe, parasite or virus in culture; assay type: cell-based, Streptococcus agalactiae; conditions: for MIC: Streptococcus agalactiae
[6] = test system: L. lactis; test: microbe, parasite or virus in culture; assay type: cell-based, Lactococcus lactis
[7] = test system: Yersinia pestis; test: microbe, parasite or virus in culture; assay type: cell-based; conditions: read-out: MIC, Yersinia pestis
[8] = test system: S. pneumoniae; test: microbe, parasite or virus in culture; assay type: cell-based, Streptococcus pneumoniae; conditions: for MIC: Streptococcus pneumoniae
[9] = test system: C. glutamicum; test: microbe, parasite or virus in culture; assay type: cell-based, Corynebacterium glutamicum; conditions: for MIC: Corynebacterium glutamicum
[10] = molecular target: T1, full-length P84S E. coli SPase (Ser-variant) (Escherichia coli, UniProt P00803, P84S); test: biochemical; assay type: binding
T1 construct: Full length His-tagged E. coli SPase proteins were expressed in BL21(DE3); His6; made in house; host or cells: E. coli BL21(DE3)

[11] = test system: Helicobacter pylori; test: microbe, parasite or virus in culture; assay type: cell-based
[12] = test system: Klebsiella pneumoniae; test: microbe, parasite or virus in culture; assay type: cell-based; conditions: Table 13
[13] = test system: wild type S. aureus 8325; test: microbe, parasite or virus in culture; assay type: cell-based, Staphylococcus aureus; conditions: for MIC: Staphylococcus aureus
[14] = test system: E. coli PAS0232 (SPase P84S); test: microbe, parasite or virus in culture; assay type: cell-based; conditions: Escherichia coli, read-out: MIC, E. coli PAS0232
[15] = Table 2B, SPase with resistance-conferring Pro

T1 sequence (P00803 whole entry P84S): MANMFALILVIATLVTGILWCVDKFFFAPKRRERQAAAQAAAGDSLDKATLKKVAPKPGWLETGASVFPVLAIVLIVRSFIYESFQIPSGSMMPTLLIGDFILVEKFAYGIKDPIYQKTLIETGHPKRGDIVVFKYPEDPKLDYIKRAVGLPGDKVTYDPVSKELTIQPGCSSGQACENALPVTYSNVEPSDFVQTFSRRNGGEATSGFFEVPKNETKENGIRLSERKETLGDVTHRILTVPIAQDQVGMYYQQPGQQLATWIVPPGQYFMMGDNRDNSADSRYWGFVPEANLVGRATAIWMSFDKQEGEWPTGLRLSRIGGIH

SMILES: CCCCCCCCCCCCCCCC(=O)N(C)[C@H](CO)C(=O)N[C@H](C)C(=O)NCC(=O)N(C)[C@@H]1C(=O)N[C@@H](C)C(=O)N[C@H](C(=O)O)Cc2ccc(O)c(c2)-c2cc1ccc2O [Arylomycin C16]
- MIC ([1]; Table 11, […], read-out: MIC, S. epidermidis RP62A): 0.25 µg/mL (≈ 0.284 µM)
- MIC ([1]; Table 13, […], read-out: MIC, Staphylococcus epidermidis): 0.25 µg/mL (≈ 0.284 µM)
- MIC ([1]; read-out: MIC, S. epidermidis): 0.25 µg/mL (≈ 0.284 µM)
- MIC ([1]; read-out: MIC, Sensitive Se): 0.5 µg/mL (≈ 0.567 µM)
- MIC [2]: 16 µg/mL (≈ 18.2 µM)
- MIC ([3]; read-out: MIC, Resistant Se): 8 µg/mL (≈ 9.08 µM)
- MIC ([3]; read-out: MIC, S. epidermidis PAS9001): 8 µg/mL (≈ 9.08 µM)
- MIC ([3]; read-out: MIC, resistant S. epidermidis): 8 µg/mL (≈ 9.08 µM)
- MIC, Resistant Se [3, 15]: 8 µg/mL (≈ 9.08 µM)
- fold elevated MIC compared to the wild type strain, Ser to Pro at position 29 ([3]; ~75% of selected S. epidermidis mutants): 32 fold
- MIC ([4]; PAO1, read-out: MIC, P. aeruginosa P84L): 4 µg/mL (≈ 4.54 µM)
- MIC ([4]; PAO1, read-out: MIC, Sensitive Pa): 8 µg/mL (≈ 9.08 µM)
- MIC, Sensitive Pa ([4]; Table 2B, SPase without resistance-conferring Pro): 8 µg/mL (≈ 9.08 µM)
- MIC ([5]; Table 4, read-out: MIC, S. agalactiae): > 128 µg/mL
- MIC ([5]; Table 13, […], read-out: MIC, Streptococcus agalactiae): > 128 µg/mL
- MIC, S. agalactiae ([5]; Table 14): >128 µg/mL
- MIC ([6]; Lactococcus lactis, Table 4): 16 µg/mL (≈ 18.2 µM)
- MIC, Lactococcus lactis ([6]; Table 13, multiple values: different strains): 16 µg/mL (≈ 18.2 µM)
- sensitivity of Lactococcus lactis spp. cremonis ([6]; one SPase with Leu29): sensitive
- sensitivity of Lactococcus lactis spp. lactii ([6]; single SPase with Leu29): resistant
- MIC [7]: 4 µg/mL (≈ 4.54 µM)
- MIC ([8]; Table 4, read-out: MIC, S. pneumoniae): 8 µg/mL (≈ 9.08 µM)
- MIC ([8]; Table 13, […], read-out: MIC, Streptococcus pneumoniae): 16 µg/mL (≈ 18.2 µM)
- MIC, S. pneumoniae ([8]; Table 14): 8 µg/mL (≈ 9.08 µM)
- MIC ([9]; Table 4, read-out: MIC, C. glutamicum): 2 µg/mL (≈ 2.27 µM)
- MIC ([9]; text b755, read-out: MIC, Corynebacterium glutamicum): 2 µg/mL (≈ 2.27 µM)
- MIC, Corynebacterium glutamicum ([9]; Table 13, […]): 2 µg/mL (≈ 2.27 µM)
- Kd [10]: 5.7 ± 1 nM
- MIC ([11]; Table 13, […], read-out: MIC, Helicobacter pylori): 4 µg/mL (≈ 4.54 µM)
- MIC ([11]; read-out: MIC, H. pylori): 4 µg/mL (≈ 4.54 µM)
- MIC [12]: > 128 µg/mL
- MIC ([13]; read-out: MIC, Resistant Sa): > 64 µg/mL
- MIC ([13]; Table 11, […], read-out: MIC, S. aureus NTCT 8325): > 128 µg/mL
- MIC, Resistant Sa [13, 15]: >64 µg/mL
- MIC [14]: 2 µg/mL (≈ 2.27 µM)
